How the values were obtained:
Format in all cases: in vivo
Euschistus heros = Euschistus heros (Neotropical Brown Stink Bug); conditions: 120 h, application rate of 200 ppm, sprayed soybean leaves, N2 nymphs, 5 days after infestation, read-out: effect in at least one of the two categories (mortality or growth inhibition)
Description: Soybean leaves on agar in 24-well microtiter plates were sprayed with aqueous test solutions prepared from 10,000 ppm DMSO stock solutions. After drying the leaves were infested with N2 nymphs. The samples were assessed for mortality and growth inhibition in comparison to untreated samples 5 days after infestation.

Myzus persicae [1] = test: Myzus persicae (Green Peach Aphid). Systemic Activity; conditions: 144 h, test rate of 24 ppm, roots of infested pea seedlings in test solution, 6 days
Description: Roots of pea seedlings infested with an aphid population of mixed ages were placed directly into aqueous test solutions prepared from 10,000 DMSO stock solutions. The samples were assessed for mortality 6 days after placing seedlings into test solutions.

Bemisia tabaci = Bemisia tabaci (Cotton White Fly): Feeding/Contact Activity; conditions: foliar, 144 h, application rate of 200 ppm, sprayed cotton leaf discs, adult white flies, 6 days after incubation
Description: Cotton leaf discs were placed on agar in 24-well microtiter plates and sprayed with aqueous test solutions prepared from 10,000 ppm DMSO stock solutions. After drying the leaf discs were infested with adult white flies. The samples were checked for mortality 6 days after incubation.

Spodoptera littoralis [2] = test: Spodoptera littoralis (Egyptian Cotton Leaf Worm), sprayed cotton leaf discs; conditions: foliar, 72 h, application rate of 200 ppm, L1 larvae, 3 days after infestation
Description: Cotton leaf discs were placed onto agar in 24-well microtiter plates and sprayed with aqueous test solutions prepared from 10,000 ppm DMSO stock solutions. After drying the leaf discs were infested with five L1 larvae. The samples were assessed for mortality, anti-feeding effect, and growth inhibition in comparison to untreated samples 3 days after infestation. Control of Spodoptera littoralis by a test sample is given when at least one of the categories mortality, anti-feedant effect, and growth inhibition is higher than the untreated sample.

Myzus persicae [3] = test: Myzus persicae (Green Peach Aphid): Feeding/Contact Activity; conditions: foliar, 144 h, application rate of 200 ppm, sprayed sunflower leaf discs, aphid population of mixed ages, 6 days after infestation
Description: Sunflower leaf discs were placed onto agar in a 24-well microtiter plate and sprayed with aqueous test solutions prepared from 10,000 ppm DMSO stock solutions. After drying, the leaf discs were infested with an aphid population of mixed ages. The samples were assessed for mortality 6 days after infestation.

Plutella xylostella = Plutella xylostella (Diamond Back Moth); conditions: 120 h, application rate of 200 ppm, artificial diet, L2 larvae, 5 days after infestation, read-out: effect in at least one of the two categories (mortality or growth inhibition)
Description: 24-well microtiter plates with artificial diet were treated with aqueous test solutions prepared from 10,000 ppm DMSO stock solutions by pipetting. After drying, the plates were infested with L2 larvae (10 to 15 per well). The samples were assessed for mortality and growth inhibition in comparison to untreated samples 5 days after infestation.

Spodoptera littoralis [4] = test: Spodoptera littoralis (Egyptian Cotton Leaf Worm), uptake by lettuce roots from agar; conditions: 144 h, test rate of 12.5 ppm, mixed with agar, absorbed by lettuce roots, Spodoptera eggs, 6 days after infestation, read-out: effect in at least one of the three categories (mortality, anti-feeding, or growth inhibition)
Excerpt: Test compounds were applied by pipette from 10,000 ppm DMSO stock solutions into 24-well plates and mixed with agar. Lettuce seeds were placed onto the agar and the multi well plate was closed by another plate which contained also agar. After 7 days the compound was absorbed by the roots and the lettuce grew into the lid plate. The lettuce leaves were then cut off into the lid plate. Spodoptera eggs were pipetted through a plastic stencil onto a humid gel blotting paper and the lid plate was closed with it. The samples were assessed for mortality, anti-feedant effect and growth inhibition in comparison to untreated samples 6 days after infestation.

Diabrotica balteata = Diabrotica balteata (Corn Root Worm); conditions: 96 h, application rate of 200 ppm, sprayed maize sprouts, L2 larvae, 4 days after infestation, read-out: effect in at least one of the two categories (mortality or growth inhibition)
Description: Maize sprouts placed onto an agar layer in 24-well microtiter plates were treated with aqueous test solutions prepared from 10,000 ppm DMSO stock solutions by spraying. After drying, the plates were infested with L2 larvae (6 to 10 per well). The samples were assessed for mortality and growth inhibition in comparison to untreated samples 4 days after infestation.

CCn1c(C(F)(F)F)cc2nc(-c3ncc(NC(=O)C4CC4)cc3S(=O)(=O)CC)n(C)c2c1=O [Compound A7, N-[6-[5-ethyl-3-methyl-4-oxo-6-(trifluoromethyl)imidazo[4,5-c]pyridin-2-yl]-5-ethylsulfonyl-3-pyridyl]cyclopropanecarboxamide]
≥ 80%: percent effect (mortality or growth inhibition) at 200 ppm (Euschistus heros) | mortality at 24 ppm (Myzus persicae [1]) | mortality at 200 ppm (Bemisia tabaci) | percent control (mortality, anti-feeding effect or growth inhibition) at 200 ppm (Spodoptera littoralis [2]) | mortality at 200 ppm (Myzus persicae [3]) | percent effect (mortality or growth inhibition) at 200 ppm (Plutella xylostella)

CCn1c(C(F)(F)F)cc2nc(-c3nc(C(=O)N(C)C4CC4)ccc3S(=O)(=O)CC)n(C)c2c1=O [Compound A18, N-cyclopropyl-6-[5-ethyl-3-methyl-4-oxo-6-(trifluoromethyl)imidazo[4,5-c]pyridin-2-yl]-5-ethylsulfonyl-N-methyl-pyridine-2-carboxamide]
≥ 80%: mortality at 24 ppm (Myzus persicae [1]) | mortality at 200 ppm (Bemisia tabaci) | percent control (mortality, anti-feeding effect or growth inhibition) at 200 ppm (Spodoptera littoralis [2]) | mortality at 200 ppm (Myzus persicae [3]) | percent effect (mortality or growth inhibition) at 200 ppm (Plutella xylostella)

CCn1c(C(F)(F)F)cc2nc(-c3ncc(N/C=N/OC)cc3S(=O)(=O)CC)n(C)c2c1=O [Compound A26, N-[6-[5-ethyl-3-methyl-4-oxo-6-(trifluoromethyl)imidazo[4,5-c]pyridin-2-yl]-5-ethylsulfonyl-3-pyridyl]-N′-methoxy-formamidine]
≥ 80%: percent effect (mortality or growth inhibition) at 200 ppm (Euschistus heros) | percent control (mortality, anti-feeding effect or growth inhibition) at 200 ppm (Spodoptera littoralis [2]) | percent effect (mortality, anti-feeding or growth inhibition) at 12.5 ppm (Spodoptera littoralis [4]) | percent effect (mortality or growth inhibition) at 200 ppm (Plutella xylostella) | effect mortality or growth inhibition at 200 ppm (Diabrotica balteata)

CCn1c(C(F)(F)F)cc2nc(-c3nc(NC4CC4)c(Cl)cc3S(=O)(=O)CC)n(C)c2c1=O [Compound A31, 2-[5-chloro-6-(cyclopropylamino)-3-ethylsulfonyl-2-pyridyl]-5-ethyl-3-methyl-6-(trifluoromethyl)imidazo[4,5-c]pyridin-4-one]
≥ 80%: percent effect (mortality or growth inhibition) at 200 ppm (Euschistus heros) | mortality at 200 ppm (Bemisia tabaci) | percent control (mortality, anti-feeding effect or growth inhibition) at 200 ppm (Spodoptera littoralis [2]) | percent effect (mortality, anti-feeding or growth inhibition) at 12.5 ppm (Spodoptera littoralis [4]) | percent effect (mortality or growth inhibition) at 200 ppm (Plutella xylostella) | effect mortality or growth inhibition at 200 ppm (Diabrotica balteata)

CCn1c(C(F)(F)F)cc2nc(-c3nc(N(C(=O)C4CC4)C(=O)C4CC4)c(Cl)cc3S(=O)(=O)CC)n(C)c2c1=O [Compound A40, N-[3-chloro-6-[5-ethyl-3-methyl-4-oxo-6-(trifluoromethyl)imidazo[4,5-c]pyridin-2-yl]-5-ethylsulfonyl-2-pyridyl]-N-(cyclopropanecarbonyl)cyclopropanecarboxamide]
≥ 80%: percent effect (mortality or growth inhibition) at 200 ppm (Euschistus heros) | mortality at 200 ppm (Bemisia tabaci) | percent control (mortality, anti-feeding effect or growth inhibition) at 200 ppm (Spodoptera littoralis [2]) | percent effect (mortality, anti-feeding or growth inhibition) at 12.5 ppm (Spodoptera littoralis [4]) | mortality at 200 ppm (Myzus persicae [3]) | percent effect (mortality or growth inhibition) at 200 ppm (Plutella xylostella) | effect mortality or growth inhibition at 200 ppm (Diabrotica balteata)

CCn1c(C(F)(F)F)cc2nc(-c3nc(NC(=O)C4CC4)c(Cl)cc3S(=O)(=O)CC)n(C)c2c1=O [Compound A41, N-[3-chloro-6-[5-ethyl-3-methyl-4-oxo-6-(trifluoromethyl)imidazo[4,5-c]pyridin-2-yl]-5-ethylsulfonyl-2-pyridyl]cyclopropanecarboxamide]
≥ 80%: percent effect (mortality or growth inhibition) at 200 ppm (Euschistus heros) | percent control (mortality, anti-feeding effect or growth inhibition) at 200 ppm (Spodoptera littoralis [2]) | percent effect (mortality, anti-feeding or growth inhibition) at 12.5 ppm (Spodoptera littoralis [4]) | mortality at 200 ppm (Myzus persicae [3]) | percent effect (mortality or growth inhibition) at 200 ppm (Plutella xylostella) | effect mortality or growth inhibition at 200 ppm (Diabrotica balteata)

CCS(=O)(=O)c1ccc(NN)nc1-c1nc2cc(C(F)(F)F)n(C3CC3)c(=O)c2n1C [Compound A45, 5-cyclopropyl-2-(3-ethylsulfonyl-6-hydrazino-2-pyridyl)-3-methyl-6-(trifluoromethyl)imidazo[4,5-c]pyridin-4-one]
≥ 80%: mortality at 24 ppm (Myzus persicae [1]) | percent control (mortality, anti-feeding effect or growth inhibition) at 200 ppm (Spodoptera littoralis [2]) | percent effect (mortality, anti-feeding or growth inhibition) at 12.5 ppm (Spodoptera littoralis [4]) | mortality at 200 ppm (Myzus persicae [3]) | percent effect (mortality or growth inhibition) at 200 ppm (Plutella xylostella) | effect mortality or growth inhibition at 200 ppm (Diabrotica balteata)

CCS(=O)(=O)c1ccc(NO)nc1-c1nc2cc(C(F)(F)F)n(C3CC3)c(=O)c2n1C [Compound A47, 5-cyclopropyl-2-[3-ethylsulfonyl-6-(hydroxyamino)-2-pyridyl]-3-methyl-6-(trifluoromethyl)imidazo[4,5-c]pyridin-4-one]
≥ 80%: percent effect (mortality or growth inhibition) at 200 ppm (Euschistus heros) | mortality at 24 ppm (Myzus persicae [1]) | mortality at 200 ppm (Bemisia tabaci) | percent control (mortality, anti-feeding effect or growth inhibition) at 200 ppm (Spodoptera littoralis [2]) | mortality at 200 ppm (Myzus persicae [3]) | percent effect (mortality or growth inhibition) at 200 ppm (Plutella xylostella) | effect mortality or growth inhibition at 200 ppm (Diabrotica balteata)

CCS(=O)(=O)c1cc(C)c(N)nc1-c1nc2cc(C(F)(F)F)n(C3CC3)c(=O)c2n1C [Compound A49, 2-(6-amino-5-methyl-3-ethylsulfonyl-2-pyridyl)-5-cyclopropyl-3-methyl-6-(trifluoromethyl)imidazo[4,5-c]pyridin-4-one]
≥ 80%: mortality at 24 ppm (Myzus persicae [1]) | mortality at 200 ppm (Bemisia tabaci) | percent control (mortality, anti-feeding effect or growth inhibition) at 200 ppm (Spodoptera littoralis [2]) | mortality at 200 ppm (Myzus persicae [3]) | percent effect (mortality or growth inhibition) at 200 ppm (Plutella xylostella) | effect mortality or growth inhibition at 200 ppm (Diabrotica balteata)

CCn1c(C(F)(F)F)cc2nc(-c3nc(Cl)c(N)cc3S(=O)(=O)CC)n(C)c2c1=O [Compound A53, 2-(5-amino-6-chloro-3-ethylsulfonyl-2-pyridyl)-5-ethyl-3-methyl-6-(trifluoromethyl)imidazo[4,5-c]pyridin-4-one]
≥ 80%: percent control (mortality, anti-feeding effect or growth inhibition) at 200 ppm (Spodoptera littoralis [2]) | percent effect (mortality, anti-feeding or growth inhibition) at 12.5 ppm (Spodoptera littoralis [4]) | mortality at 200 ppm (Myzus persicae [3]) | percent effect (mortality or growth inhibition) at 200 ppm (Plutella xylostella) | effect mortality or growth inhibition at 200 ppm (Diabrotica balteata)

CCn1c(C(F)(F)F)cc2nc(-c3ncc(N(C)N)cc3S(=O)(=O)CC)n(C)c2c1=O [Compound A56, 2-[5-[amino(methyl)amino]-3-ethylsulfonyl-2-pyridyl]-5-ethyl-3-methyl-6-(trifluoromethyl)imidazo[4,5-c]pyridin-4-one]
≥ 80%: percent effect (mortality or growth inhibition) at 200 ppm (Euschistus heros) | percent control (mortality, anti-feeding effect or growth inhibition) at 200 ppm (Spodoptera littoralis [2]) | percent effect (mortality, anti-feeding or growth inhibition) at 12.5 ppm (Spodoptera littoralis [4]) | mortality at 200 ppm (Myzus persicae [3]) | percent effect (mortality or growth inhibition) at 200 ppm (Plutella xylostella) | effect mortality or growth inhibition at 200 ppm (Diabrotica balteata)
